Test results taken from patent US20250197864A1, “LNCRNA TRANSCRIPTS IN MELANOMAGENESIS” (The Regents of the University of California, priority 2021, published 2025).

What was measured:
[1] = system: Sk-Mel-2-RM trametinib resistant melanoma cell line; test: Cell viability assay (ATP quantitation); type: cell-based; settings: 50 nM, 5 days, vs non-targeting control
From the text: (§1) Human melanoma cell line VMM39 was purchased from American Type Culture Collection (ATCC). Human melanoma cell lines D04, MM415, WM1366, WM3629, WM3211, Sk-Mel-2 and Sk-Mel-28 were a generous gift from Boris Bastian at the University of California, San Francisco. Primary human melanoma cell line Hs852.T was purchased from the Cell Culture Core Facility (CCCF) at the University of California, San Francisco. Primary human melanoma cell line AV5 was obtained from metastasis of a melanoma patient. All experimental protocols were approved by UCSF Human Research Protection Program Institutional Review Board (IRB #12-0948), all patients signed informed consent, and methods were carried out in accordance with relevant guidelines and regulations. Resistant cell lines DO4RM, MM415RM, Sk-Mel-2RM and WM3629RM were established as previously described. [Sanlorenzo, M. et al., The lincRNA MIRAT binds to IQGAPI and modulates the MAPK pathway in NRAS mutant melanoma. Sci Rep 8, 10902 (2018).] Primary human melanocytic cell lines (PHM) from infant foreskin of five healthy donors were available in our cell repository and pooled. Melanoma cell lines were maintained in RPMI 1640 media supplemented with 10% (vol/vol) heat inactivated fetal bovine serum. Melanocytes were maintained in M254 medium with HMGS supplements (1× final solution). All cell lines were incubated at 37° C. under 5% CO2.
(§2) EsiRNA, siRNA and ASO GapmeRs were transfected in a final concentration of 50 nM unless mentioned otherwise and the transfection reagent Lipofectamine 3000 (2 ul/ml) was added according to the manufacturer's instructions.
(§3) Dependent on cell doubling time, 0.7-2×10^^3 cells were seeded in 96 well plates. 1 day after seeding cells were incubated in media with oligonucleotide concentration and/or MEKi and transfection reagent. 3 (synergy experiments) or 5 (solely ASO) days after transfection Total luminescence was measured on the SynergyHT plate reader (BioTek) using Gen5 software.

[2] = system: WM3629RM trametinib resistant melanoma cell line; test: Cell viability assay (ATP quantitation); type: cell-based; settings: 50 nM, 5 days, vs non-targeting control
From the text: as §1, §2, §3

[3] = system: D04RM trametinib resistant melanoma cell line; test: Cell viability assay (ATP quantitation); type: cell-based; settings: 50 nM, 5 days, vs non-targeting control
From the text: as §1, §2, §3

[4] = system: MM415RM trametinib resistant melanoma cell line; test: Cell viability assay (ATP quantitation); type: cell-based; settings: 50 nM, 5 days, vs non-targeting control
From the text: as §1, §2, §3

[5] = system: WM3211 melanoma cell line; test: Cell viability assay (ATP quantitation); type: cell-based, human; settings: 50 nM, 5 days (120 hrs), vs non-targeting control
Outline: (§4)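 Cells (0.7-2×10^^3 per well, by doubling time) were transfected one day after seeding with esiRNA, siRNA or ASO GapmeRs at 50 nM final unless stated, using Lipofectamine 3000, with or without MEKi. Total luminescence was read 3 days (synergy) or 5 days (ASO alone) after transfection.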

[6] = system: WM3629 melanoma cell line; test: Cell viability assay (ATP quantitation); type: cell-based, human; settings: 50 nM, 5 days (120 hrs), vs non-targeting control
Outline: as §4

[7] = system: WM1366 melanoma cell line; test: Cell viability assay (ATP quantitation); type: cell-based, human; settings: 50 nM, 5 days (120 hrs), vs non-targeting control
Outline: as §4

[8] = system: Hs852.T primary melanoma cell line; test: Cell viability assay (ATP quantitation); type: cell-based, human; settings: 50 nM, 5 days (120 hrs), vs non-targeting control
Outline: as §4

[9] = system: Sk-Mel-28 melanoma cell line; test: Cell viability assay (ATP quantitation); type: cell-based, human; settings: 50 nM, 5 days (120 hrs), vs non-targeting control
Outline: as §4

VMM39 melanoma cell line = test: Cell viability assay (ATP quantitation); type: cell-based, human; settings: 50 nM, 5 days (120 hrs), vs non-targeting control
Outline: as §4

MM415 melanoma cell line = test: Cell viability assay (ATP quantitation); type: cell-based, human; settings: 50 nM, 5 days (120 hrs), vs non-targeting control
Outline: as §4

[10] = system: AV5 primary melanoma cell line; test: Cell viability assay (ATP quantitation); type: cell-based, human; settings: 50 nM, 5 days (120 hrs), vs non-targeting control
Outline: as §4

D04 melanoma cell line = test: Cell viability assay (ATP quantitation); type: cell-based, human; settings: 50 nM, 5 days (120 hrs), vs non-targeting control
Outline: as §4

[11] = system: Sk-Mel-2 melanoma cell line; test: Cell viability assay (ATP quantitation); type: cell-based, human; settings: 50 nM, 5 days (120 hrs), vs non-targeting control
Outline: as §4

[12] = system: H82 lung cancer cell line; test: Cell viability assay (ATP quantitation); type: cell-based; settings: 50 nM, 5 days, vs non-targeting control
Outline: as §4

[13] = system: XG-1 multiple myeloma cell line; test: Cell viability assay (ATP quantitation); type: cell-based; settings: 50 nM, 5 days, vs non-targeting control
Outline: as §4

[14] = system: A-172 Glioblastoma cell line; test: Cell viability assay (ATP quantitation); type: cell-based; settings: 50 nM, 5 days, vs non-targeting control
Outline: as §4

[15] = system: WM3060 melanoma cell line; test: Cell viability assay (ATP quantitation); type: cell-based; settings: 50 nM, 5 days, vs non-targeting control
Outline: as §4

[16] = system: U20S osteosarcoma cell line; test: Cell viability assay (ATP quantitation); type: cell-based; settings: 50 nM, 5 days, vs non-targeting control
Outline: as §4

[17] = system: HCT116 colon carcinoma cell line; test: Cell viability assay (ATP quantitation); type: cell-based; settings: 50 nM, 5 days, vs non-targeting control
Outline: as §4

[18] = system: SW480 colon carcinoma cell line; test: Cell viability assay (ATP quantitation); type: cell-based; settings: 50 nM, 5 days, vs non-targeting control
Outline: as §4

[19] = system: MaMel30 melanoma cell line; test: Cell viability assay (ATP quantitation); type: cell-based; settings: 50 nM, 5 days, vs non-targeting control
Outline: as §4

AV4 melanoma cell line = test: Cell viability assay (ATP quantitation); type: cell-based; settings: 50 nM, 5 days, vs non-targeting control
Outline: as §4

[20] = system: SW1271 lung cancer cell line; test: Cell viability assay (ATP quantitation); type: cell-based; settings: 50 nM, 5 days, vs non-targeting control
Outline: as §4

[21] = system: T98G Glioblastoma cell line; test: Cell viability assay (ATP quantitation); type: cell-based; settings: 50 nM, 5 days, vs non-targeting control
Outline: as §4

[22] = system: U87-MG Glioblastoma cell line; test: Cell viability assay (ATP quantitation); type: cell-based; settings: 50 nM, 5 days, vs non-targeting control
Outline: as §4

[23] = system: H2228 lung cancer cell line; test: Cell viability assay (ATP quantitation); type: cell-based; settings: 50 nM, 5 days, vs non-targeting control
Outline: as §4

[24] = system: H929 multiple myeloma cell line; test: Cell viability assay (ATP quantitation); type: cell-based; settings: 50 nM, 5 days, vs non-targeting control
Outline: as §4

[25] = system: L363 multiple myeloma cell line; test: Cell viability assay (ATP quantitation); type: cell-based; settings: 50 nM, 5 days, vs non-targeting control
Outline: as §4

[26] = system: U138-MG Glioblastoma cell line; test: Cell viability assay (ATP quantitation); type: cell-based; settings: 50 nM, 5 days, vs non-targeting control
Outline: as §4

AV1 melanoma cell line = test: Cell viability assay (ATP quantitation); type: cell-based; settings: 50 nM, 5 days, vs non-targeting control
Outline: as §4

[27] = system: Sk-Mel-5 melanoma cell line; test: Cell viability assay (ATP quantitation); type: cell-based; settings: 50 nM, 5 days, vs non-targeting control
Outline: as §4

[28] = system: Sk-N-AS Neuroblastoma cell line; test: Cell viability assay (ATP quantitation); type: cell-based; settings: 50 nM, 5 days, vs non-targeting control
Outline: as §4

[29] = system: sarcoma cell line SK-LMS-1; test: Cell viability assay (ATP quantitation); type: cell-based; settings: SK-LMS-1 sarcoma; 50 nM, 120 hrs; Lipofectamine3000 2 ul/ml; vs non-targeting control ASO
Experimental: as §2, §3
(§5) Cell viability was compared to treatment with non-targeting control ASO-treatment. Lipofectamine3000 concentration was 2 ul/ml.

[30] = system: hepatocellular carcinoma cell line HepG2; test: Cell viability assay (ATP quantitation); type: cell-based; settings: 50 nM, 120 hrs, Lipofectamine3000 2 ul/ml, vs non-targeting control ASO
Experimental: as §2, §3, §5

D04 xenograft tumors [31] = test: Intravenous in vivo treatment, D04 xenograft; settings: D04 tumors in mice; 700 μg twice a week, intravenous tail vein, no transfection reagent; vs non-targeting control ASO
Experimental: (§6) In 4- to 6-week-old NOD.Cg-Prkdcscid Il2rgtm1Wjl/SzJ mice, D04 cells in 150 1 of PBS and 50 1 of Matrigel were subcutaneously injected on the right and left posterior dorsal flank of 4- to 6-week-old homozygous nude Foxn1nu/Foxn1nu mice (Stock.no 007850). Mice were obtained from JAX®. Tumor size was measured using a digital caliper and the formula 0.5×(length×(width^2)) was used to calculate tumor volume. Mice were treated twice a week with 700 μg of (SEQ ID NO: 16) or non-targeting control-ASO. No transfection reagent was co-applied. ASO injections were applied intravenously as tail vein injections. Mice were weighted twice a week and observed for signs of distress or disorder.

D04 xenograft tumors [32] = test: Intratumoral in vivo treatment, D04 xenograft; settings: D04 tumors in mice; 400 μg twice a week into the tumor mass, no transfection reagent; vs non-targeting control ASO
Experimental: as §6, with “Il2rgtm1Wjl/SzJ mice D04,” for “Il2rgtm1Wjl/SzJ mice, D04”, “and 501” for “and 50 1”, “right” for “right and left”, “with 400” for “with 700”, “applied into the tumor mass.” for “applied intravenously as tail vein injections.”

Sequence: ACATGGATTGGTAGTG (QIAGEN GapmeR, modification pattern not given here) [SEQ ID NO: 17, Antisense oligonucleotide targeting RP11-7011.3-001, 002 and 003]
- cell viability decrease [1]: significant cell viability decrease
- cell viability decrease [2]: significant cell viability decrease
- cell viability decrease [3]: significant cell viability decrease
- cell viability decrease [4]: significant cell viability decrease
- cell viability decrease [5]: significant cell viability decrease
- cell viability decrease [6]: significant cell viability decrease
- cell viability decrease [7]: significant cell viability decrease
- cell viability decrease [8]: significant cell viability decrease
- cell viability decrease [9]: significant cell viability decrease
- cell viability decrease (VMM39 melanoma cell line): significant cell viability decrease
- cell viability decrease (MM415 melanoma cell line): significant cell viability decrease
- cell viability decrease [10]: significant cell viability decrease
- cell viability decrease (D04 melanoma cell line): significant cell viability decrease
- cell viability decrease [11]: significant cell viability decrease
- cell viability decrease [12]: significant cell viability decrease
- cell viability decrease [13]: significant cell viability decrease
- cell viability decrease [14]: significant cell viability decrease
- cell viability decrease [15]: significant cell viability decrease
- cell viability decrease [16]: significant cell viability decrease
- cell viability decrease [17]: significant cell viability decrease
- cell viability decrease [18]: significant cell viability decrease
- cell viability decrease [19]: significant cell viability decrease
- cell viability decrease (AV4 melanoma cell line): significant cell viability decrease
- cell viability decrease [20]: significant cell viability decrease
- cell viability decrease [21]: significant cell viability decrease
- cell viability decrease [22]: significant cell viability decrease
- cell viability decrease [23]: significant cell viability decrease
- cell viability decrease [24]: significant cell viability decrease
- cell viability decrease [25]: significant cell viability decrease
- cell viability decrease [26]: significant cell viability decrease
- cell viability decrease (AV1 melanoma cell line): significant cell viability decrease
- cell viability decrease [27]: significant cell viability decrease
- cell viability decrease [28]: significant cell viability decrease

Sequence: TGCGCGGCGGAAAGAA (QIAGEN GapmeR, modification pattern not given here) [SEQ ID NO: 16, ASO targeting AC004540.4 (TRASH), intronic region of Isoform 2; used in vivo]
- cell viability decrease [5]: significant cell viability decrease
- cell viability decrease [6]: significant cell viability decrease
- cell viability decrease [7]: significant cell viability decrease
- cell viability decrease [8]: significant cell viability decrease
- cell viability decrease [9]: significant cell viability decrease
- cell viability decrease (VMM39 melanoma cell line): significant cell viability decrease
- cell viability decrease (MM415 melanoma cell line): significant cell viability decrease
- cell viability decrease [10]: significant cell viability decrease
- cell viability decrease (D04 melanoma cell line): significant cell viability decrease
- cell viability decrease [11]: significant cell viability decrease
- cell viability decrease [29]: significant cell viability decrease
- cell viability decrease [30]: significant cell viability decrease
- tumor growth (D04 xenograft tumors [31]): significantly reduced tumor growth
- tumor growth (D04 xenograft tumors [32]): significantly reduced tumor growth
